Assay results as given in publication PMC8776894 (Communications Biology, 2022).

Tests used:
[1] = test system: PI3K (p85α), AKT, IκBα, NF-κB, p38, ERK1/2 phosphorylation; assay: Quantitative immunoblotting of brain; assay type: in vivo, mouse; conditions: MCAO/R mice, Western blot
Protocol: Quantitative immunoblotting was accomplished as previously described. Anti-β-actin (Themo) was used as an internal loading control. Imaging of blots was performed using an AzureC300 with secondary antibodies(Themo). Analysis was carried out in Image Lab and signal intensities were normalized to loading controls, where applicable. The antibodies and their concentrations are listed as follows (antibody, dilution, catalog number, company, country): AKT (1:1000,4691, CST, USA), phospho-AKT (1:1000, 4046S, CST), phospho-p44/42 MAPK (Erk1/2) (Thr202/Tyr204) (1:1000, 4370S, CST), p44/42 MAPK (Erk1/2) (1:1000,4695S, CST), p38 MAPK (1:1000,8690S, CST), phospho-p38 MAPK (Thr180/Tyr182) (1:1000, 4511S, CST), NF-κB p65 (1:1000,8242S, CST), phospho-NF-κB p65 (Ser536) (1:1000,3033S, CST), IκBα (L35A5) Mouse mAb (1:1000, 4814S, CST), phospho-IκBα (Ser32) (1:1000,2859S, CST), PI3 kinase p85α (1:1000,11889S, CST), and phospho-PI3 kinase p85 (Tyr458)/p55 (Tyr199) (1:1000, 17366S, CST).

[2] = test system: CD45+F4/80+CD11b+MHCII+ microglia; assay: Flow cytometry of primary microglia from brain; assay type: in vivo, mouse; conditions: MCAO/R mice, IF
Protocol: Brain samples were collected in sham or MCAO mice, digested with collagenase IV and DNase, and filtered with sterile cell strainers (Biologix, 70 µm). Single-cell suspensions were prepared after the removal of red blood cells by ammonium-chloride-potassium (ACK) lysis buffer and isolated leukocytes in brains by 30%, 37%, and 70% Percoll (GE Healthcare) density gradient centrifugation, respectively. Cell numbers were counted by a Coulter counter (Thermo Fisher). Cells were washed with buffer (PBS with 0.5% bovine serum albumin and 0.02% sodium azide) three times and subsequently stained with fluorochrome-conjugated monoclonal antibodies: PE Rat anti-Mouse CD45 (553081, BD Biosciences), FITC anti-mouse F4/80 antibody (123108, Biolegend), PerCP-Cyanine5.5 CD11b antibody (45-0112-82, Invitrogen), and APC anti-mouse I-A/I-E antibody (107614, Biolegend). Samples were analyzed using Flow Cytometry (CytoFLEX S). Subsequent analysis was performed with FlowJo software (Tree Star Inc., San Carlos, CA, USA). Total microglia were identified as CD45^+F4/80^+CD11b^+, M1-like microglia were identified as CD45 + F4/80 + CD11b + MHCII + .

[3] = VK stability in PBS (HPLC); assay type: physicochemical; conditions: pH 7.4, 37 °C, 750 rpm, 120 min, VK 0.735 mM (Fig. 1 legend 73.5 nM), HPLC-UV 215 nm, peak area relative to 0 min, at least triplicate
Protocol: Proteolytic degradation of peptide-based drugs is generally considered as the main defect to limit systemic therapeutic applications. Therefore, high-performance liquid chromatography (HPLC) was used to assess the stability of VK in PBS or plasma at physiological pH (7.4) and temperature (37 °C). […] For neuropharmacology, crossing the BBB is a remarkable challenge, and VK was labeled with FITC in the N-terminus. FITC-labeled VK was then administered to stroke mice. After 30 min, these mice were imaged by an in vivo imaging system. […] Brains were collected at 0, 30, 60, 90, and 120 min and the distribution of VK was observed. […] To further evaluate whether VK was a cell-penetrating peptide, the oxygen-glucose deprivation/reoxygenation (OGD/R) model simulated I/R […] was established in HT22 hippocampal neuron cells and FITC-labeled VK was incubated for 120 min.
VK in PBS or plasma was detected by quantifying the peak areas relative to the initial peak areas (0 min). All stability tests were performed at least in triplicate.

[4] = test system: IL-1β, TNF-α, IL-6, IL-8, IL-10 in serum; assay: Cytokine ELISA in serum; assay type: in vivo, mouse; conditions: MCAO/R mice, 48 h
Protocol: Mice were decapitated under anesthesia at 48 h after MCAO/R. The IL-1β (Cat# 88-5019-88), TNF-α (Cat# 88-7324-22), IL-6 (Cat# 88-7064-88), and IL-8 (Cat# 88-8086-22) were purchased from Thermo Fisher Scientific. The levels of these proteins were measured by enzyme-linked immune sorbent assays (ELISA) kits, according to the manufacturer’s recommendations.

MCAO/R mice = assay: Transmission electron microscopy of BBB; assay type: in vivo, mouse
Protocol: Frontal cortex samples were isolated from mice with stroke and fixed in 2% glutaraldehyde and 4% paraformaldehyde in 0.1 M sodium cacodylate (pH 7.4), treated with 10% gelatin solution in sodium cacodylate buffer, and incubated with 2% osmium tetroxide. Sections were cut using a Leica EM TP ultramicrotome (Leica Microsystems) at 40 nm and placed within grids stained with a 1:1 mix of 3% uranyl acetate and 50% acetone for 30–60 s. Grids were imaged with a JEM 1400 transmission electron microscope (JEOL) at ×1200 for low magnification and ×12,000 for high magnification (unless otherwise noted) using Gatan Microscopy Suite software (Gatan).

With “Gly-Arg-Pro-Hyp-Gly-Phe-Ser-Pro-Phe-Arg-Ile-Asp [VK, Vespakinin-M]” the “PI3K (p85α) and AKT phosphorylation” value [1] was “stimulated MCAO-mediated PI3K (p85α) and AKT phosphorylation”, the “phosphorylation levels of p38 and ERK1/2 vs vehicle” value [1] was “partially downregulated” and the “IκB and NF-κB phosphorylation levels” value ([1]; VK 300 µg/kg) was “reduced IκB and NF-κB levels”. The activation of microglia [2] was “suppressed the excessive activation of microglia”, the “degradation rate of VK in PBS” value [3] was 62.4% and the “IL-10 level in serum vs vehicle” value [4] was “increase in IL-10 levels”. For the same substance, the “IL-1β, TNF-α, IL-6 and IL-8 levels in the peripheral (serum) vs vehicle” value ([4]; VK 150 and 300 µg/kg) was “decreased IL-1β, TNF-α, IL-6, and IL-8 levels” and the “BBB integrity, TEM” value (MCAO/R mice) was “could maintain BBB integrity”.
